Results taken from patent publication US20100063466A1, “ABSORBENT ARTICLE” (SCA Hygiene Products AB, priority 2006, published 2010).

What was measured:
[1] = Measurement of water activity of salt solutions; assay type: physicochemical; details: different concentrations of salt in Elga-H2O; FIG. 8
Method: Water activity is measured as follows. The water activity meter is from Aqua Lab, Model Series 3 TE, […]. (U.S. Pat. No. 5,816,704). A specimen, a solution with different additions of different salts in Elga-H2O or synthetic urine, test liquid 2. was placed in a plastic cup. The quantity is not critical, but it is important that the bottom surface of the plastic cup is covered. The specimen is moved into the test chamber, which is closed, and the measurement commences. When the test value is stable, a green light flashes and the water activity can be read off digitally. The salts that were tested were: NaCl, KCl, NH4Cl, KC2H3O2 (K acetate), Na C2H3O2 (Na acetate).
The water activity was measured in Elga-H2O (USF Elga, distilled water) and synthetic urine, test liquid 2.
The water activity was measured according to method 4, but with different concentrations of salt in Elga-H2O.

[2] = system: E. faecalis; details: FIG. 4
Source text: (§1) Absorbent test specimens were punched out from an absorbent core produced in a test plant. A standard method for mat-forming of a core was used during production of the core in the test plant. The absorbent test specimen included a homogeneous mixture of fluff pulp, 0.72 g Weyerhauser pulp (NB 416) and 0.48 g of superabsorbent polymer (SAP) (Degussa SXM9135). The absorbent core, was compressed to a bulk of around 8-10 cm^3/g. The size of the punched-out test items was 5 cm in diameter, the weight was about 1.2 g.
(§2) 16 ml (corresponding to a maximum absorption capacity of a test specimen according to method 1) of test liquid 1 containing the bacteria were added to a test specimen placed in plastic tubs, and a lid was fitted on the tubs. The tubs were turned upside down and incubated in a warm cabinet at 35° C. After incubation for 0, 6 and 12 hours, the test samples were placed in a plastic bag with peptone water and the content was homogenized (agitated and worked up) in a stomacker for 3 minutes. The homogenate was diluted in dilution tubes with peptone water and a microbiological culture was spread on agar plates. Slanetz Bartley agar was used for E. faecalis, and Drigalski agar for E. coli and P. mirabilis. The specimens were incubated at 35° C. for 1-2 days before the colonies were counted and the log CFU/ml calculated. Control tests were also carried out with absorbent cores without NaCl.
(§3) Bacteria were cultured in nutrient broth and diluted to the desired concentration of about Log 3.3 in test liquid 1 (method 4). Absorbent test specimens were produced according to method 1. 29 (high), 22 (medium) and 12 (low) % by weight NaCl (% dry) were added to the core, corresponding to 3 (high), 2 (medium) and 1 (low) % by weight (% wet) in the wet product. This proportion also applies to the other examples. The bacterial growth was measured according to method 3.

[3] = system: P. mirabilis; details: FIG. 4
Source text: as §1, §2, §3

[4] = system: E. coli; details: FIG. 4
Source text: as §1, §2, §3

[5] = system: Proteus mirabilis; details: 29% by weight of NaCl (% dry); after 6 and 8 hours; FIG. 5
Source text: as §1
(§4) Absorbent test specimens were produced according to method 1.
as §4

[6] = 3% added salt (% wet), NaCl high, after 12 hours, 35° C, test liquid 1
[7] = 29, 22 and 12 % by weight NaCl (% dry), after 6 and 12 hours

water activity as the concentrations of salt increase [1] | SMILES | growth of E. faecalis [2, 6] | growth of E. faecalis compared with the control tests [2, 7] | growth of P. mirabilis [3, 6] | growth of P. mirabilis compared with the control tests [3, 7] | growth of E. coli [4, 6] | growth of E. coli compared with the control tests [4, 7] | development of NH3, ranking among specimens [5]
drops | CC(=O)[O-].[Na+] [Na acetate] |  |  |  |  |  |  | 
drops | Cl.N [NH4Cl] |  |  |  |  |  |  | 

SMILES | water activity as the concentrations of salt increase [1] | growth of E. faecalis [2, 6] | growth of E. faecalis compared with the control tests [2, 7] | growth of P. mirabilis [3, 6] | growth of P. mirabilis compared with the control tests [3, 7] | growth of E. coli [4, 6] | growth of E. coli compared with the control tests [4, 7] | development of NH3, ranking among specimens [5]
[Cl-].[Na+] [NaCl] | drops | < 5.5 log CFU/ml | lower | < 5.5 log CFU/ml | lower | < 5.5 log CFU/ml | lower | lowest
